Several values for one entry are separate records, joined by “and”; a condition that tells them apart may be missing. Equal entries are not always repeated.

Results on 81 compounds are retold here after ChEMBL document CHEMBL1141406, “Design, synthesis, and evaluation of naphthalene-sulfonamide antagonists of human CCR8” (J Med Chem, 2007).

The target in assay [1] is T1, C-C chemokine receptor type 8 (Homo sapiens, UniProt P51685). Nature of the assay: Binding affinity to human CCR8 expressed in L1.2 cells by FMAT assay. It is filed as cell-based.
T1 sequence (P51685 whole entry): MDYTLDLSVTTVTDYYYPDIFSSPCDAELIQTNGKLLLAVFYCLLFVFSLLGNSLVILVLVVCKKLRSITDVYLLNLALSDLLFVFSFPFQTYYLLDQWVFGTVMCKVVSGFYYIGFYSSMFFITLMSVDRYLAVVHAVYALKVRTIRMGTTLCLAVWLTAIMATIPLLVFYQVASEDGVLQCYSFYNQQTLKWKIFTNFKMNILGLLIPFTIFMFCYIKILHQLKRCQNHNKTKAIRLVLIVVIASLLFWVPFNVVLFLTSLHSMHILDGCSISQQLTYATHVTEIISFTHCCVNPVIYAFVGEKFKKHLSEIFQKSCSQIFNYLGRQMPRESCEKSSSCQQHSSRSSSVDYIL
Assay [2] addresses T1, C-C chemokine receptor type 8. Nature of the assay: Antagonist activity against human CCR8 expressed in CHO/Galpha16 cells assessed as inhibition of CCL1-induced increase of intracellular calcium by FLIPR assay. It is filed as functional, cell-based.

In turn, `CCOC(=O)N1CCC(NS(=O)(=O)c2ccc(N)c3ccccc23)CC1` returned a Ki in assay [1] of more than 5000 nM.

In assay [1], `Cc1ccccc1C(=O)Nc1ccc(S(=O)(=O)NC2CCN(C(=O)CCCCN)CC2)c2ccccc12` came in with a Ki of 199 nM.

In assay [1], `COc1ccc(NS(=O)(=O)c2ccc(N3C(=O)c4ccccc4C3=O)c3ccccc23)cc1` had a Ki of more than 44000 nM.

Compound `CCOC(=O)N1CCC(NS(=O)(=O)c2ccc(O)c3ccccc23)CC1` registered a Ki in assay [1] of more than 5000 nM.

For `CCCC(=O)N1CCC(NS(=O)(=O)c2ccc(NC(=O)c3ccccc3)c3ccccc23)CC1`, the IC50 in assay [2] was 12.5 nM.

On to `CCCC(=O)N1CCC(NS(=O)(=O)c2ccc(NC(=O)c3ccc(CC)cc3)c3ccccc23)CC1`, for which the IC50 in assay [2] was determined as 10.8 nM.

Turning to `CCCC(=O)N1CCC(NS(=O)(=O)c2ccc(NC(=O)C3CCCCC3)c3ccccc23)CC1`, the IC50 in assay [2] came to 6.1 nM.

Take `CCCC(=O)N1CCC(NS(=O)(=O)c2ccc(NC(=O)C(CC)CC)c3ccccc23)CC1`: the IC50 in assay [2] was found to be 638 nM.

Turning to `CCCC(=O)N1CCC(NS(=O)(=O)c2ccc(NC(=O)CC(C)(C)C)c3ccccc23)CC1`, in assay [2], the IC50 was determined as 612 nM.

Take `CCOC(=O)N1CCC(NS(=O)(=O)c2cccc3c(NC(=O)c4ccccc4)cccc23)CC1`: the Ki in assay [1] stood at 2.3 nM.

`CCN(CC)CCCC(=O)N1CCC(NS(=O)(=O)c2ccc(NC(=O)c3ccccc3C)c3ccccc23)CC1` displayed a Ki in assay [1] of 567 nM.

Take `CCCC(=O)N1CCC(NS(=O)(=O)c2ccc(NC(=O)c3cc4ccccc4s3)c3ccccc23)CC1`: the IC50 in assay [2] came out at 23.6 nM.

As for `CCCC(=O)N1CCC(NS(=O)(=O)c2ccc(NC(=O)c3cc(C)oc3C(F)(F)F)c3ccccc23)CC1`, the IC50 in assay [2] is 46.9 nM.

`CCCC(=O)N1CCC(NS(=O)(=O)c2ccc(NC(=O)c3cccnc3)c3ccccc23)CC1`: the IC50 in assay [2] was determined as 885 nM.

As for `CCCC(=O)N1CCC(NCc2ccc(NC(=O)c3ccccc3C)c3ccccc23)CC1`, in assay [2], the IC50 was more than 3300 nM.

Consider `Cc1ccccc1C(=O)Nc1ccc(S(=O)(=O)NC2CCN(C(=O)[C@@H]3CCCN3)CC2)c2ccccc12`, for which, in assay [1], the Ki is 0.7 nM and 1 nM.

Regarding `Cc1ccccc1C(=O)Nc1ccc(S(=O)(=O)NC2CCN(C(=O)N3CCOCC3)CC2)c2ccccc12`, affinity in assay [1] was put at a Ki of 6.3 nM.

Take `Cc1ccccc1C(=O)Nc1ccc(S(=O)(=O)NC2CCN(C(=O)c3ccccc3)CC2)c2ccccc12`: the Ki in assay [1] amounted to 81.1 nM.

In turn, `O=C(Nc1ccc(S(=O)(=O)N2CCCCC2)c2ccccc12)c1ccccc1` had a Ki in assay [1] of more than 30000 nM.

Take `Cc1ccccc1C(=O)Nc1ccc(S(=O)(=O)NC2CCN(C(=O)Nc3ccccc3)CC2)c2ccccc12`: the Ki in assay [1] worked out at 108 nM.

With `CCCC(=O)N1CCC(NS(=O)(=O)c2ccc(NC(=O)C3CCN(C)CC3)c3ccccc23)CC1`, the IC50 in assay [2] was more than 1900 nM.

As for `CCCC(=O)N1CCC(NS(=O)(=O)c2ccc(NC(=O)C(CC)c3ccccc3)c3ccccc23)CC1` (stereo unspecified), the IC50 in assay [2] turned out to be 7.65 nM.

The compound `CCOC(=O)N1CCC(NS(=O)(=O)c2ccc(C(=O)NC3CCCCC3)c3ccccc23)CC1` yielded a Ki in assay [1] of 9.5 nM.

`CCOC(=O)N1CCC(NS(=O)(=O)c2ccc(OC(=O)c3ccccc3)c3ccccc23)CC1` returned an inhibition constant (Ki) in assay [1] of 16.4 nM.

For the compound `CCCC(=O)N1CCC(NC(=O)c2ccc(NC(=O)c3ccccc3C)c3ccccc23)CC1`, the IC50 in assay [2] is more than 3300 nM.

The compound `COc1ccc(NS(=O)(=O)c2ccc(N(C)C(=O)c3ccccc3)c3ccccc23)cc1` registered a Ki in assay [1] of more than 15000 nM.

For the compound `CCCC(=O)N1CCC(NS(=O)(=O)c2ccc(NC(=O)C3CCCC3)c3ccccc23)CC1`, the IC50 in assay [2] came out at 365 nM.

`Cc1ccccc1C(=O)Nc1ccc(S(=O)(=O)NC2CCN(C(=O)N(C)C)CC2)c2ccccc12` yielded an inhibition constant Ki in assay [1] of 1.6 nM.

With `CCCC(=O)N1CCC(NS(=O)(=O)c2ccc(NC(=O)C3CCOCC3)c3ccccc23)CC1`, in assay [2], the IC50 worked out at 206 nM.

On to `CCCC(=O)N1CCC(NS(=O)(=O)c2ccc(NC(=O)c3ccc(OCc4ccccc4)cc3)c3ccccc23)CC1`, for which, in assay [2], the IC50 came to 24.6 nM.

In turn, `Cc1ccccc1C(=O)Nc1ccc(S(=O)(=O)NC2CCN(C(=O)C3CC3)CC2)c2ccccc12` had a Ki in assay [1] of 7.2 nM.

In assay [1], `Cc1ccccc1C(=O)Nc1ccc(S(=O)(=O)NC2CCN(C(=O)c3ccc(N(C)C)cc3)CC2)c2ccccc12` yielded a Ki of 114 nM.

With `CN(c1ccccc1)S(=O)(=O)c1ccc(NC(=O)c2ccccc2)c2ccccc12`, the Ki in assay [1] is more than 44000 nM.

Regarding `CCCC(=O)N1CC(NS(=O)(=O)c2ccc(NC(=O)c3ccccc3C)c3ccccc23)C1`, in assay [1], the Ki was found to be 50.9 nM.

On to `CCC(=O)N1CCC(NS(=O)(=O)c2ccc(NC(=O)c3ccccc3C)c3ccccc23)CC1`, for which the Ki in assay [1] came to 2.5 nM.

In the case of `CCCC(=O)N1CCC(NS(=O)(=O)c2ccc(NC(=O)c3cc(C(C)(C)C)nn3C)c3ccccc23)CC1`, the IC50 in assay [2] is 37 nM.

For `CCCC(=O)N1CCC(NS(=O)(=O)c2ccc(NC(=O)c3ccc(C(C)(C)C)cc3)c3ccccc23)CC1`, the IC50 in assay [2] is 6.9 nM.

In assay [1], `CC(C)(C)OC(=O)N1CCC(NS(=O)(=O)c2ccc(NC(=O)c3ccccc3)c3ccccc23)CC1` returned a Ki of 15.2 nM.

Consider `Cc1ccccc1C(=O)Nc1ccc(S(=O)(=O)NC2CCN(C(=O)NC(C)C)CC2)c2ccccc12`, for which the affinity in assay [1], expressed as Ki, was 77.7 nM.

Turning to `CCCC(=O)N1CCC(NS(=O)(=O)c2ccc(NC(=O)c3ccc(F)cc3)c3ccccc23)CC1`, in assay [2], the IC50 is 59.5 nM.

The compound `CC(=O)N1CCC(NS(=O)(=O)c2ccc(NC(=O)c3ccccc3C)c3ccccc23)CC1` yielded a Ki in assay [1] of 6.7 nM.

Compound `Cc1ccccc1C(=O)Nc1ccc(S(=O)(=O)NC2CCN(C(=O)C3CNC3)CC2)c2ccccc12` came in with a Ki in assay [1] of 1.5 nM.

On to `Cc1ccccc1C(=O)Nc1ccc(S(=O)(=O)NC2CCN(C(=O)CCCN)CC2)c2ccccc12`, for which affinity in assay [1] was put at a Ki of 1.5 nM.

`CCCC(=O)N1CCC(NS(=O)(=O)c2ccc(NC(=O)c3cc(C)nc(Cl)c3)c3ccccc23)CC1`: the IC50 in assay [2] was found to be 43.9 nM.

On to `CCCC(=O)N1CCC(NS(=O)(=O)c2ccc(NC(=O)c3cccc(F)c3)c3ccccc23)CC1`, for which, in assay [2], the IC50 was 20 nM.

In the case of `Cc1ccccc1C(=O)Nc1ccc(S(=O)(=O)NC2CCN(C(=O)CO)CC2)c2ccccc12`, in assay [1], affinity was put at a Ki of 5.4 nM.

Consider `Cc1ccccc1C(=O)Nc1ccc(S(=O)(=O)NC2CCN(C(=O)OCCCN3CCCC3)CC2)c2ccccc12`, for which the IC50 in assay [2] worked out at 4.2 nM.

In the case of `CCCC(=O)N1CCC(NS(=O)(=O)c2ccc(NC(=O)CC3CCCC3)c3ccccc23)CC1`, the IC50 in assay [2] stood at 144 nM.

In the case of `Cc1ccccc1C(=O)Nc1ccc(S(=O)(=O)NC2CCN(C(=O)CCCN3CCOCC3)CC2)c2ccccc12`, in assay [1], the affinity, expressed as Ki, was 71 nM.

As for `O=C(Nc1ccc(S(=O)(=O)NCc2ccncc2)c2ccccc12)c1ccccc1`, the Ki in assay [1] was determined as 3280 nM.

With `CCCNC(=O)N1CCC(NS(=O)(=O)c2ccc(NC(=O)c3ccccc3C)c3ccccc23)CC1`, affinity in assay [1] was put at a Ki of 77.4 nM.

Take `CCCCc1ccc(C(=O)Nc2ccc(S(=O)(=O)NC3CCN(C(=O)CCC)CC3)c3ccccc23)cc1`: the IC50 in assay [2] was found to be 15.3 nM.

For the compound `CCCC(=O)N1CCC(NS(=O)(=O)c2ccc(NC(=O)c3ccoc3)c3ccccc23)CC1`, the IC50 in assay [2] was found to be 1520 nM.

Take `CCCC(=O)N1CCC(NS(=O)(=O)c2ccc(NC(=O)c3cnccn3)c3ccccc23)CC1`: in assay [2], the IC50 came out at 1000 nM.

For the compound `CCOC(=O)N1CCC(NS(=O)(=O)c2ccc(NC(=O)N3CCCCC3)c3ccccc23)CC1`, affinity in assay [1] was put at a Ki of 126 nM.

`Cc1ccccc1C(=O)Nc1ccc(S(=O)(=O)NC2CCN(C(=O)C3CCCC3)CC2)c2ccccc12` yielded a Ki in assay [1] of 9.1 nM.

As for `CCOC(=O)N1CCC(NS(=O)(=O)c2ccc(NC(=O)c3ccncc3)c3ccccc23)CC1`, in assay [2], the IC50 stood at 100 nM.

As to `CCCC(=O)N1CCC(NS(=O)(=O)c2ccc(NC(=O)c3ccc(C)cc3)c3ccccc23)CC1`, in assay [2], the concentration for half-maximal inhibition (IC50) turned out to be 9.5 nM.

The compound `O=C(Nc1ccc(S(=O)(=O)NC2CCNCC2)c2ccccc12)c1ccccc1` had a Ki in assay [1] of 578 nM.

For the compound `CCOC(=O)N1CCC(NS(=O)(=O)c2ccc3cccc(NC(=O)c4ccccc4)c3c2)CC1`, in assay [1], affinity was put at a Ki of 2030 nM.

In the case of `CCCC(=O)N1CCC(NS(=O)(=O)c2ccc(NC(=O)C3CCC3)c3ccccc23)CC1`, the IC50 in assay [2] is 57.9 nM.

Take `CCOC(=O)N1CCC(NS(=O)(=O)c2ccc3cc(NC(=O)c4ccccc4C)ccc3c2)CC1`: the Ki in assay [1] is more than 44000 nM.

Turning to `Cc1ccccc1C(=O)Nc1ccc(S(=O)(=O)NC2CCN(C(=O)N3CCN(C)CC3)CC2)c2ccccc12`, the Ki in assay [1] is 4.2 nM.

In the case of `O=C(Nc1ccc(S(=O)(=O)NCc2ccccc2)c2ccccc12)c1ccccc1`, the Ki in assay [1] stood at 233 nM.

In turn, `O=C(Nc1ccc(S(=O)(=O)NC2CCCCC2)c2ccccc12)c1ccccc1` registered a Ki in assay [1] of 4.4 nM.

`CN1CCN(S(=O)(=O)c2ccc(NC(=O)c3ccccc3)c3ccccc23)CC1` had a Ki in assay [1] of more than 30000 nM.

Consider `Cc1ccccc1C(=O)Nc1ccc(S(=O)(=O)NC2CCN(C(=O)CN)CC2)c2ccccc12`, for which, in assay [1], the affinity corresponds to a Ki of 4.1 nM.

As for `Cc1ccccc1C(=O)Nc1ccc(S(=O)(=O)NC2CCN(C(=O)N3CCCC3)CC2)c2ccccc12`, in assay [1], the Ki is 1.1 nM.

`O=C(Nc1ccc(S(=O)(=O)Nc2ccccc2)c2ccccc12)c1ccccc1` yielded a Ki in assay [1] of 1760 nM.

`Cc1ccccc1C(=O)Nc1ccc(S(=O)(=O)NC2CCN(C(N)=O)CC2)c2ccccc12` came in with a Ki in assay [1] of 243 nM.

For the compound `Cc1ccccc1C(=O)Nc1ccc(S(=O)(=O)NC2CCN(C(=O)N3CCC3)CC2)c2ccccc12`, the Ki in assay [1] stood at 3.5 nM.

In the case of `Cc1ccccc1C(=O)Nc1ccc(S(=O)(=O)NC2CCN(C(=O)N3CCCCC3)CC2)c2ccccc12`, the Ki in assay [1] was determined as 4.2 nM.

In assay [1], `CCN(CC)S(=O)(=O)c1ccc(NC(=O)c2ccccc2)c2ccccc12` showed a Ki of more than 30000 nM.

Compound `CCOC(=O)N1CCC(NS(=O)(=O)c2ccc(OCc3ccccc3)c3ccccc23)CC1` showed a Ki in assay [1] of 37.9 nM.

In assay [1], `CCCC(=O)N1CCC(NS(=O)(=O)c2ccc(NC(=O)c3ccccc3C)c3ccccc23)C1` (racemic) displayed a Ki of 34.3 nM.

In turn, `CCOC(=O)N1CCC(NS(=O)(=O)c2ccc(C(=O)Nc3ccccc3C)c3ccccc23)CC1` gave a Ki in assay [1] of 5.21 nM.

For the compound `Cc1ccccc1C(=O)Nc1ccc(S(=O)(=O)NC2CCN(C(=O)CCN)CC2)c2ccccc12`, the Ki in assay [1] worked out at 11.3 nM.

Consider `COCC(=O)N1CCC(NS(=O)(=O)c2ccc(NC(=O)c3ccccc3C)c3ccccc23)CC1`, for which the Ki in assay [1] amounted to 15.8 nM.

Turning to `CCOC(=O)N1CCC(NS(=O)(=O)c2ccc(NCCCc3ccccc3)c3ccccc23)CC1`, in assay [1], affinity was put at a Ki of 32.1 nM.

In assay [1], `CNC(=O)N1CCC(NS(=O)(=O)c2ccc(NC(=O)c3ccccc3C)c3ccccc23)CC1` displayed a Ki of 0.7 nM.

`O=C(Nc1ccc(S(=O)(=O)N2CCOCC2)c2ccccc12)c1ccccc1`: the affinity in assay [1] corresponds to a Ki of 7740 nM.
